Literature values, collected in patent US20230243817A1, “USES, METHODS AND PRODUCTS RELATING TO OLIGOMERIC LIPOPOLYSACCHARIDE BINDING PROTEINS” (priority 2020, published 2023).

B1: LPS binding protein: human LPS immune receptor (protein, UniProt P18428 26-481, looked up)
Lipopolysaccharide-binding …: ANPGLVARITDKGLQYAAQEGLLALQSELLRITLPDFTGDLRIPHVGRGRYEFHSLNIHSCELLHSALRPVPGQGLSLSISDSSIRVQGRWKVRKSFFKLQGSFDVSVKGISISVNLLLGSESSGRPTVTASSCSSDIADVEVDMSGDLGWLLNLFHNQIESKFQKVLESRICEMIQKSVSSDLQPYLQTLPVTTEIDSFADIDYSLVEAPRATAQMLEVMFKGEIFHRNHRSPVTLLAAVMSLPEEHNKMVYFAISDYVFNTASLVYHEEGYLNFSITDDMIPPDSNIRLTTKSFRPFVPRLARLYPNMNLELQGSVPSAPLLNFSPGNLSVDPYMEIDAFVLLPSSSKEPVFRLSVATNVSATLTFNTSKITGFLKPGKVKVELKESKVGLFNAELLEALLNYYILNTFYPKFNDKLAEGFPLPLLKRVQLYDLGLQIHKDFLFLGANVQYMRV

Conditions: for Kd: read-out: KD for LPS

Molecule | Kd [µM] | Reported binding affinity (depending on the bacterial strain)
TLR4: human LPS immune receptor | 141 | 
MD-2: human LPS immune receptor | 2.33 | 
polymyxin B [reference compound] | 48 | micromolar range
B1 | 0.0035 | 
